Reference: BindingDB's records for PubMed 35189320 (Dr.Vishwanath Karad MIT World Peace University, 2022)

Target: Sterol O-acyltransferase 1 (Homo sapiens) (UniProt P35610)
Experiment: Inhibition of human ACAT1 in HepG2 cells assessed as inhibition of […] synthesis incubated for 1 hrs followed by 13C-addition of 13C-oleic acid pre-complexed with fatty acid free BSA for 6 hrs by LC/MS/MS analysis

Sequence of Sterol O-acyltransferase 1 (Homo sapiens) (P35610 whole entry, looked up): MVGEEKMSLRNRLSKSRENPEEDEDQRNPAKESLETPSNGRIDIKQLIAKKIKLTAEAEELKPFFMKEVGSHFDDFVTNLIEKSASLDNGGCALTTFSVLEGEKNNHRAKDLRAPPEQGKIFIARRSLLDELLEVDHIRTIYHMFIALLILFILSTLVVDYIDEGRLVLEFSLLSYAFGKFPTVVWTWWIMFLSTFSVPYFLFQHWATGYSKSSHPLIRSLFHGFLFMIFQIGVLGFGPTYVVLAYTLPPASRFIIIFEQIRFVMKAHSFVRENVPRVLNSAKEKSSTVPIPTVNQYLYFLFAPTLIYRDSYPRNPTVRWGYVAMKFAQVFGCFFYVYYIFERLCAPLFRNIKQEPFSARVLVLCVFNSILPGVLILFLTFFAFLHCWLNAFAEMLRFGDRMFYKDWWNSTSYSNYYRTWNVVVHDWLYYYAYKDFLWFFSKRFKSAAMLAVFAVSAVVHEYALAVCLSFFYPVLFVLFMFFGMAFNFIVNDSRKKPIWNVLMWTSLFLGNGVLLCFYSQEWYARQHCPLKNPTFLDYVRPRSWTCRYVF

Compound | IC50
O=C(O)CC1CCC2(CC1)CCN(c1ccc(NC(=O)c3nnc(Nc4ccc(F)c(F)c4)o3)cn1)CC2 | 45 nM
O=C(Nc1ccc(N2CCC3(CC2)CC(C(=O)O)C3)nc1)c1nnc(Nc2ccc(F)c(F)c2)o1 | 2500 nM
